Earlier results on one compound are cited in US4144131A, “Immobilization of enzymes on human tissue or erythrocytes” (Wisconsin Alumni Research Foundation, priority 1974, dated 1979).

The series has as its system soybean lipoxygenase. As to conditions: read-out: Km for oxygen, compared with oxygen concentrations in tumor tissue.

With `O=O` [oxygen], the Km is 30 µM.
